In patent US20140243375A1, “ISOXAZOLINE DERIVATIVES AS INSECTICIDAL COMPOUNDS” (Syngenta Participations AG, priority 2011, published 2014):

test system: Thrips tabaci; experiment: Thrips tabaci (onion thrips) sunflower leaf disc spray test; assay type: in vivo; settings: foliar, 168 h, application rate 200 ppm, sprayed sunflower leaf discs, mixed ages, mortality after 7 days
Procedure: This Example illustrates the pesticidal/insecticidal properties of compounds of formula (I). Tests were performed as follows: Thrips Tabaci (Onion Thrips): Sunflower leaf discs were placed on agar in a 24-well microtiter plate and sprayed with test solutions at an application rate of 200 ppm. After drying, the leaf discs were infested with a thrips population of mixed ages. After an incubation period of 7 days, samples were checked for mortality.

Structure (SMILES) | pest or weed control at 200 ppm [%]
CCN1OCC(NC(=O)c2ccc(C3=NOC(c4cc(Cl)cc(C(F)(F)F)c4)(C(F)(F)F)C3)cc2C)C1=O (stereo not drawn) [Compound A12] | ≥ 80
Cc1cc(C2=NOC(c3cc(Cl)cc(Cl)c3)(C(F)(F)F)C2)ccc1C(=O)NC1CON(CC(F)F)C1=O (stereo not drawn) [Compound A15] | ≥ 80
Cc1cc(C2=NOC(c3cc(Cl)c(Cl)c(Cl)c3)(C(F)(F)F)C2)ccc1C(=O)NC1CON(CC(F)(F)F)C1=O (stereo not drawn) [Compound A16] | ≥ 80
Cc1cc(C2=NOC(c3cc(Cl)c(F)c(Cl)c3)(C(F)(F)F)C2)ccc1C(=O)NC1CON(CC(F)(F)F)C1=O (stereo not drawn) [Compound A20] | ≥ 80
Cc1cc(C2=NOC(c3cc(Cl)cc(Cl)c3)(C(F)(F)F)C2)ccc1C(=O)NC1CON(CC(F)(F)F)C1=O (stereo not drawn) [Compound A22] | ≥ 80
Cc1cc(C2=NOC(c3cc(Cl)cc(Br)c3)(C(F)(F)F)C2)ccc1C(=O)NC1CON(CC(F)(F)F)C1=O (stereo not drawn) [Compound A25] | ≥ 80

test system: Diabrotica balteata; experiment: Diabrotica balteata (corn root worm) L2 larvae test on artificial diet; assay type: in vivo; settings: 120 h, application rate 200 ppm (concentration in well 18 ppm), larval mortality and growth regulation after 5 days
Procedure: (§1) This Example illustrates the pesticidal/insecticidal properties of compounds of formula (I). Tests were performed as follows: Diabrotica balteata (Corn Root Worm): A 24-well microtiter plate (MTP) with artificial diet was treated with test solutions at an application rate of 200 ppm (concentration in well 18 ppm) by pipetting. After drying, the MTP's were infested with L2 larvae (6-10 per well). After an incubation period of 5 days, samples were checked for larval mortality and growth regulation.

Structure (SMILES) | pest or weed control at 200 ppm [%]
CCN1OCC(NC(=O)c2ccc(C3=NOC(c4cc(Cl)cc(C(F)(F)F)c4)(C(F)(F)F)C3)cc2C)C1=O (stereo not drawn) [Compound A12] | ≥ 80
Cc1cc(C2=NOC(c3cc(Cl)cc(Cl)c3)(C(F)(F)F)C2)ccc1C(=O)NC1CON(CC(F)F)C1=O (stereo not drawn) [Compound A15] | ≥ 80
Cc1cc(C2=NOC(c3cc(Cl)c(Cl)c(Cl)c3)(C(F)(F)F)C2)ccc1C(=O)NC1CON(CC(F)(F)F)C1=O (stereo not drawn) [Compound A16] | ≥ 80
Cc1cc(C2=NOC(c3cc(Cl)c(F)c(Cl)c3)(C(F)(F)F)C2)ccc1C(=O)NC1CON(CC(F)(F)F)C1=O (stereo not drawn) [Compound A20] | ≥ 80
Cc1cc(C2=NOC(c3cc(Cl)cc(Cl)c3)(C(F)(F)F)C2)ccc1C(=O)NC1CON(CC(F)(F)F)C1=O (stereo not drawn) [Compound A22] | ≥ 80
Cc1cc(C2=NOC(c3cc(Cl)cc(Br)c3)(C(F)(F)F)C2)ccc1C(=O)NC1CON(CC(F)(F)F)C1=O (stereo not drawn) [Compound A25] | ≥ 80

test system: Tetranychus urticae; experiment: Tetranychus urticae (two-spotted spider mite) bean leaf disc spray test; assay type: in vivo; settings: foliar, 192 h, application rate 200 ppm, sprayed bean leaf discs, mixed ages, egg, larval and adult mortality 8 days later
Procedure: This Example illustrates the pesticidal/insecticidal properties of compounds of formula (I). Tests were performed as follows: Tetranychus urticae (Two-Spotted Spider Mite): Bean leaf discs on agar in 24-well microtiter plates were sprayed with test solutions at an application rate of 200 ppm. After drying, the leaf discs are infested with mite populations of mixed ages. 8 days later, discs are checked for egg mortality, larval mortality, and adult mortality.

Structure (SMILES) | pest or weed control at 200 ppm [%]
CCN1OCC(NC(=O)c2ccc(C3=NOC(c4cc(Cl)cc(C(F)(F)F)c4)(C(F)(F)F)C3)cc2C)C1=O (stereo not drawn) [Compound A12] | ≥ 80
Cc1cc(C2=NOC(c3cc(Cl)cc(Cl)c3)(C(F)(F)F)C2)ccc1C(=O)NC1CON(CC(F)F)C1=O (stereo not drawn) [Compound A15] | ≥ 80
Cc1cc(C2=NOC(c3cc(Cl)c(Cl)c(Cl)c3)(C(F)(F)F)C2)ccc1C(=O)NC1CON(CC(F)(F)F)C1=O (stereo not drawn) [Compound A16] | ≥ 80
Cc1cc(C2=NOC(c3cc(Cl)c(F)c(Cl)c3)(C(F)(F)F)C2)ccc1C(=O)NC1CON(CC(F)(F)F)C1=O (stereo not drawn) [Compound A20] | ≥ 80
Cc1cc(C2=NOC(c3cc(Cl)cc(Cl)c3)(C(F)(F)F)C2)ccc1C(=O)NC1CON(CC(F)(F)F)C1=O (stereo not drawn) [Compound A22] | ≥ 80
Cc1cc(C2=NOC(c3cc(Cl)cc(Br)c3)(C(F)(F)F)C2)ccc1C(=O)NC1CON(CC(F)(F)F)C1=O (stereo not drawn) [Compound A25] | ≥ 80

test system: Spodoptera littoralis; experiment: Spodoptera littoralis (Egyptian cotton leafworm) cotton leaf disc spray test; assay type: in vivo; settings: foliar, 72 h, application rate 200 ppm, sprayed cotton leaf discs, mortality, feeding behavior, growth regulation 3 days after treatment
Procedure: This Example illustrates the pesticidal/insecticidal properties of compounds of formula (I). Tests were performed as follows: Spodoptera littoralis (Egyptian Cotton Leafworm): Cotton leaf discs were placed on agar in a 24-well microtiter plate and sprayed with test solutions at an application rate of 200 ppm. After drying, the leaf discs were infested with […]. The samples were checked for mortality, feeding behavior, and growth regulation 3 days after treatment (DAT).

Structure (SMILES) | pest or weed control at 200 ppm [%]
CCN1OCC(NC(=O)c2ccc(C3=NOC(c4cc(Cl)cc(C(F)(F)F)c4)(C(F)(F)F)C3)cc2C)C1=O (stereo not drawn) [Compound A12] | ≥ 80
Cc1cc(C2=NOC(c3cc(Cl)cc(Cl)c3)(C(F)(F)F)C2)ccc1C(=O)NC1CON(CC(F)F)C1=O (stereo not drawn) [Compound A15] | ≥ 80
Cc1cc(C2=NOC(c3cc(Cl)c(Cl)c(Cl)c3)(C(F)(F)F)C2)ccc1C(=O)NC1CON(CC(F)(F)F)C1=O (stereo not drawn) [Compound A16] | ≥ 80
Cc1cc(C2=NOC(c3cc(Cl)c(F)c(Cl)c3)(C(F)(F)F)C2)ccc1C(=O)NC1CON(CC(F)(F)F)C1=O (stereo not drawn) [Compound A20] | ≥ 80
Cc1cc(C2=NOC(c3cc(Cl)cc(Cl)c3)(C(F)(F)F)C2)ccc1C(=O)NC1CON(CC(F)(F)F)C1=O (stereo not drawn) [Compound A22] | ≥ 80
Cc1cc(C2=NOC(c3cc(Cl)cc(Br)c3)(C(F)(F)F)C2)ccc1C(=O)NC1CON(CC(F)(F)F)C1=O (stereo not drawn) [Compound A25] | ≥ 80

test system: Heliothis virescens; experiment: Heliothis virescens (tobacco budworm) egg test on artificial diet; assay type: in vivo; settings: 96 h, application rate 200 ppm (concentration in well 18 ppm), eggs on artificial diet, egg mortality, larval mortality, growth regulation after 4 days
Procedure: This Example illustrates the pesticidal/insecticidal properties of compounds of formula (I). Tests were performed as follows: Heliothis virescens (Tobacco Budworm): Eggs (0-24 h old) were placed in 24-well microtiter plate on artificial diet and treated with test solutions at an application rate of 200 ppm (concentration in well 18 ppm) by pipetting. After an incubation period of 4 days, samples were checked for egg mortality, larval mortality, and growth regulation.

Structure (SMILES) | pest or weed control at 200 ppm [%]
CCN1OCC(NC(=O)c2ccc(C3=NOC(c4cc(Cl)cc(C(F)(F)F)c4)(C(F)(F)F)C3)cc2C)C1=O (stereo not drawn) [Compound A12] | ≥ 80
Cc1cc(C2=NOC(c3cc(Cl)cc(Cl)c3)(C(F)(F)F)C2)ccc1C(=O)NC1CON(CC(F)F)C1=O (stereo not drawn) [Compound A15] | ≥ 80
Cc1cc(C2=NOC(c3cc(Cl)c(Cl)c(Cl)c3)(C(F)(F)F)C2)ccc1C(=O)NC1CON(CC(F)(F)F)C1=O (stereo not drawn) [Compound A16] | ≥ 80
Cc1cc(C2=NOC(c3cc(Cl)c(F)c(Cl)c3)(C(F)(F)F)C2)ccc1C(=O)NC1CON(CC(F)(F)F)C1=O (stereo not drawn) [Compound A20] | ≥ 80
Cc1cc(C2=NOC(c3cc(Cl)cc(Cl)c3)(C(F)(F)F)C2)ccc1C(=O)NC1CON(CC(F)(F)F)C1=O (stereo not drawn) [Compound A22] | ≥ 80
Cc1cc(C2=NOC(c3cc(Cl)cc(Br)c3)(C(F)(F)F)C2)ccc1C(=O)NC1CON(CC(F)(F)F)C1=O (stereo not drawn) [Compound A25] | ≥ 80

test system: Plutella xylostella; experiment: Plutella xylostella (diamond back moth) L2 larvae test on artificial diet; assay type: in vivo; settings: 144 h, application rate 200 ppm (concentration in well 18 ppm), larval mortality and growth regulation after 6 days
Procedure: as §1, with “Plutella xylostella (Diamond Back Moth):” for “Diabrotica balteata (Corn Root Worm): A”, “(7-12” for “(6-10”, “6” for “5”

Structure (SMILES) | pest or weed control at 200 ppm [%]
CCN1OCC(NC(=O)c2ccc(C3=NOC(c4cc(Cl)cc(C(F)(F)F)c4)(C(F)(F)F)C3)cc2C)C1=O (stereo not drawn) [Compound A12] | ≥ 80
Cc1cc(C2=NOC(c3cc(Cl)cc(Cl)c3)(C(F)(F)F)C2)ccc1C(=O)NC1CON(CC(F)F)C1=O (stereo not drawn) [Compound A15] | ≥ 80
Cc1cc(C2=NOC(c3cc(Cl)c(Cl)c(Cl)c3)(C(F)(F)F)C2)ccc1C(=O)NC1CON(CC(F)(F)F)C1=O (stereo not drawn) [Compound A16] | ≥ 80
Cc1cc(C2=NOC(c3cc(Cl)c(F)c(Cl)c3)(C(F)(F)F)C2)ccc1C(=O)NC1CON(CC(F)(F)F)C1=O (stereo not drawn) [Compound A20] | ≥ 80
Cc1cc(C2=NOC(c3cc(Cl)cc(Cl)c3)(C(F)(F)F)C2)ccc1C(=O)NC1CON(CC(F)(F)F)C1=O (stereo not drawn) [Compound A22] | ≥ 80
Cc1cc(C2=NOC(c3cc(Cl)cc(Br)c3)(C(F)(F)F)C2)ccc1C(=O)NC1CON(CC(F)(F)F)C1=O (stereo not drawn) [Compound A25] | ≥ 80
